As usually defined, the inhibition is the change of the read-out against control, counted positive when it falls. One may read the melting point as the temperature, or range, at which the solid turns liquid.

Series [1] deals with T1, human vasopressin V2 receptor subtype (Homo sapiens, UniProt P30518).
T1 construct: host or cells: CHO cells (pZeoSV vector)
As to the kind of experiment: Vasopressin binding in Chinese Hamster Ovary cell membranes expressing human vasopressin V2 subtype receptors. The note with it: 100 nM, CHO cell membranes, [3H]arginine vasopressin, values without parentheses. In outline: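 Radioligand displacement on membranes from CHO cells stably expressing human V2 receptor, 25 to 50 μg protein/well, in 50 mM Tris-HCl pH 7.4 with MgCl2, BSA and protease inhibitors. [^3H]arginine vasopressin (8 nM working solution) incubated 60 min at room temperature; bound label measured by filtration and scintillation counting.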

Each structure is given as a SMILES string.

T1 sequence (P30518 whole entry): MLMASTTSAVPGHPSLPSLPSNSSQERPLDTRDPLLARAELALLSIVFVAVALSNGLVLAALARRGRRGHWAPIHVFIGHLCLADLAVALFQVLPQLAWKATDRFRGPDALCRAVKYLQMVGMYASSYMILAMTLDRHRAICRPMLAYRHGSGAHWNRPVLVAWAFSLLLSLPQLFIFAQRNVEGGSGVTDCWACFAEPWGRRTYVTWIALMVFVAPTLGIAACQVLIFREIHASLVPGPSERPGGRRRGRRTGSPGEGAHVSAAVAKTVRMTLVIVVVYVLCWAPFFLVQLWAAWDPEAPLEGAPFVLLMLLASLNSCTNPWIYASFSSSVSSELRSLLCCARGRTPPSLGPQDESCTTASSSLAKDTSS

`COc1ccccc1-c1ccc(C(=O)N2Cc3ccc(C(=O)O)n3Cc3ccccc32)cc1C` [Example 9, 10-[(2′-Methoxy-2-methyl-[1,1′-biphenyl]-4-yl)carbonyl]-10,11-dihydro-5H-pyrrolo[2,1-c][1,4]benzodiazepine-3-carboxylic acid] gave a melting point of 174 to 184 °C. Further, the inhibition at 0.1 µM in series [1] came out at 42%. On to `Cc1cc(C(=O)N2Cc3ccc(C(=O)N4CCN(CCN5CCOCC5)CC4)n3Cc3ccccc32)ccc1-c1ccccc1C(F)(F)F` [Example 216, (10-{[2-Methyl-2′-(trifluoromethyl)[1,1′-biphenyl]-4-yl]carbonyl}-10,11-dihydro-5H -pyrrolo[2,1-c][1,4]benzodiazepin-3-yl){4-[2-(4-morpholinyl)ethyl]-1-piperazinyl}methanone], for which, in series [1], the inhibition at 0.1 µM was 0%. For `COc1cc(-c2ccccc2C)c(Cl)cc1C(=O)N1Cc2ccc(C(=O)N3CCN(CCN4CCOCC4)CC3)n2Cc2ccccc21` [Example 217, {10-[(6-Chloro-3-methoxy-2′-methyl[1,1′-biphenyl]-4-yl)carbonyl]-10,11-dihydro-5H -pyrrolo[2,1-c][1,4]benzodiazepin-3-yl}{4-[2-(4-morpholinyl)ethyl]-1-piperazinyl}methanone], the inhibition at 0.1 µM in series [1] amounted to 34%. For the compound `Cc1ccccc1-c1ccc(C(=O)N2Cc3ccc(C(=O)N4CCN(CCN5CCOCC5)CC4)n3Cc3ccccc32)cc1C` [Example 218, {10-[(2,2′-Dimethyl[1,1′-biphenyl]-4-yl)carbonyl]-10,11-dihydro-5H-pyrrolo[2,1-c][1,4]benzodiazepin-3-yl}{4-[2-(4-morpholinyl)ethyl]-1-piperazinyl}methanone], the inhibition at 0.1 µM in series [1] worked out at 23%. Take `C=CCN1CCN(C(=O)c2ccc3n2Cc2ccccc2N(C(=O)c2ccc(-c4ccccc4OC)c(C)c2)C3)CC1` [Example 222, (4-Allyl-1-piperazinyl){10-[(2′-methoxy-2-methyl[1,1′-biphenyl]-4-yl)carbonyl]-10,11-dihydro-5H-pyrrolo[2,1-c][1,4]benzodiazepin-3-yl}methanone]: in series [1], the inhibition at 0.1 µM came out at 1%. For the compound `C=CCN1CCN(C(=O)c2ccc3n2Cc2ccccc2N(C(=O)c2ccc(-c4cccc(OC)c4)c(C)c2)C3)CC1` [Example 223, (4-Allyl-1-piperazinyl){10-[(3′-methoxy-2-methyl[1,1′-biphenyl]-4-yl)carbonyl]-10,11-dihydro-5H-pyrrolo[2,1-c][1,4]benzodiazepin-3-yl}methanone], the inhibition at 0.1 µM in series [1] is 13%. Same read-out and setting: in the case of `C=CCN1CCN(C(=O)c2ccc3n2Cc2ccccc2N(C(=O)c2ccc(-c4ccccc4C)cc2)C3)CC1` [Example 224, (4-Allyl-1-piperazinyl){10-[(2′-methyl[1,1′-biphenyl]-4-yl)carbonyl]-10,11-dihydro-5H -pyrrolo[2,1-c][1,4]benzodiazepin-3-yl}methanone] it was 7%; in that of `C=CCN1CCN(C(=O)c2ccc3n2Cc2ccccc2N(C(=O)c2ccc(-c4ccccc4C)c(OC)c2)C3)CC1` [Example 225, (4-Allyl-1-piperazinyl){10-[(2-methoxy-2′-methyl[1,1′-biphenyl]-4-yl)carbonyl]-10,11-dihydro-5H-pyrrolo[2,1-c][1,4]benzodiazepin-3-yl}methanone], -4%.

Turning to `C=CCN1CCN(C(=O)c2ccc3n2Cc2ccccc2N(C(=O)c2cc(Cl)c(-c4cccc(OC)c4)cc2OC)C3)CC1` [Example 226, (4-Allyl-1-piperazinyl){10-[(6-chloro-3,3′-dimethoxy[1,1′-biphenyl]-4-yl)carbonyl]-10,11-dihydro-5H-pyrrolo[2,1-c][1,4]benzodiazepin-3-yl}methanone], the inhibition at 0.1 µM in series [1] worked out at 10%. Consider `C=CCN1CCN(C(=O)c2ccc3n2Cc2ccccc2N(C(=O)c2ccc(-c4ccccc4OC)c(OC)c2)C3)CC1` [Example 227, (4-Allyl-1-piperazinyl){10-[(2,2′-dimethoxy[1,1′-biphenyl]-4-yl)carbonyl]-10,11-dihydro-5H -pyrrolo[2,1-c][1,4]benzodiazepin-3-yl}methanone], for which the inhibition at 0.1 µM in series [1] is 2%. For `C=CCN1CCN(C(=O)c2ccc3n2Cc2ccccc2N(C(=O)c2ccc(-c4cccc(OC)c4)c(OC)c2)C3)CC1` [Example 228, (4-Allyl-1-piperazinyl){10-[(2,3′-dimethoxy[1,1′-biphenyl]-4-yl)carbonyl]-10,11-dihydro-5H -pyrrolo[2,1-c][1,4]benzodiazepin-3-yl}methanone], in series [1], the inhibition at 0.1 µM stood at 20%. For the compound `C=CCN1CCN(C(=O)c2ccc3n2Cc2ccccc2N(C(=O)c2ccc(-c4cccc5ccccc45)cc2Cl)C3)CC1` [Example 229, (4-Allyl-1-piperazinyl){10-[2-chloro-4-(1-naphthyl)benzoyl]-10,11-dihydro-5H-pyrrolo[2,1-c][1,4]benzodiazepin-3-yl}methanone], in series [1], the inhibition at 0.1 µM is 27%. On the same count and under the same terms, the result for `C=CCN1CCN(C(=O)c2ccc3n2Cc2ccccc2N(C(=O)c2ccc(-c4ccccc4C(F)(F)F)c(C)c2)C3)CC1` [Example 230, (4-Allyl-1-piperazinyl)(10-{[2-methyl-2′-(trifluoromethyl)[1,1′-biphenyl]-4-yl]carbonyl}-10,11-dihydro-5H-pyrrolo[2,1-c][1,4]benzodiazepin-3-yl)methanone] reads 4%; that for `C=CCN1CCN(C(=O)c2ccc3n2Cc2ccccc2N(C(=O)c2ccc(-c4cccc5ccccc45)c(OC)c2)C3)CC1` [Example 231, (4-Allyl-1-piperazinyl){10-[3-methoxy-4-(1-naphthyl)benzoyl]-10,11-dihydro-5H -pyrrolo[2,1-c][1,4]benzodiazepin-3-yl}methanone], -5%. In the case of `COc1ccccc1-c1ccc(C(=O)N2Cc3ccc(C(=O)N4CCN(C(C)C)CC4)n3Cc3ccccc32)cc1C` [Example 232, (4-Isopropyl-1-piperazinyl){10-[(2′-methoxy-2-methyl[1,1′-biphenyl]-4-yl)carbonyl]-10,11-dihydro-5H-pyrrolo[2,1-c][1,4]benzodiazepin-3-yl}methanone], in series [1], the inhibition at 0.1 µM worked out at 4%. Still for that read-out and setting: the result for `Cc1ccccc1-c1ccc(C(=O)N2Cc3ccc(C(=O)N4CCN(C(C)C)CC4)n3Cc3ccccc32)cc1C` [Example 233, {10-[(2,2′-Dimethyl[1,1′-biphenyl]-4-yl)carbonyl]-10,11-dihydro-5H-pyrrolo[2,1-c][1,4]benzodiazepin-3-yl}(4-isopropyl-1-piperazinyl)methanone] reads 23%. `COc1ccccc1-c1ccc(C(=O)N2Cc3ccc(C(=O)N4CCN(C(C)C)CC4)n3Cc3ccccc32)cc1` [Example 234, (4-Isopropyl-1-piperazinyl){10-[(2′-methoxy[1,1′-biphenyl]-4-yl)carbonyl]-10,11-dihydro-5H-pyrrolo[2,1-c][1,4]benzodiazepin-3-yl}methanone]: the inhibition at 0.1 µM in series [1] worked out at 22%. Consider `COc1cccc(-c2ccc(C(=O)N3Cc4ccc(C(=O)N5CCN(C(C)C)CC5)n4Cc4ccccc43)cc2C)c1` [Example 235, (4-Isopropyl-1-piperazinyl){10-[(3′-methoxy-2-methyl[1,1′-biphenyl]-4-yl)carbonyl]-10,11-dihydro-5H-pyrrolo[2,1-c][1,4]benzodiazepin-3-yl}methanone], for which the inhibition at 0.1 µM in series [1] came to 17%. Turning to `COc1cc(C(=O)N2Cc3ccc(C(=O)N4CCN(C(C)C)CC4)n3Cc3ccccc32)ccc1-c1cccc2ccccc12` [Example 236, (4-Isopropyl-1-piperazinyl){10-[3-methoxy-4-(1-naphthyl)benzoyl]-10,11-dihydro-5H -pyrrolo[2,1-c][1,4]benzodiazepin-3-yl}methanone], the inhibition at 0.1 µM in series [1] was 5%.

For `COc1cc(C(=O)N2Cc3ccc(C(=O)N4CCN(C(C)C)CC4)n3Cc3ccccc32)ccc1-c1ccccc1C` [Example 237, (4-isopropyl-1-piperazinyl){10-[(2-methoxy-2′-methyl[1,1′-biphenyl]-4-yl)carbonyl]-10,11-dihydro-5H-pyrrolo[2,1-c][1,4]benzodiazepin-3-yl}methanone], the inhibition at 0.1 µM in series [1] is -3%. In the case of `COc1cc(-c2ccccc2C)c(Cl)cc1C(=O)N1Cc2ccc(C(=O)N3CCN(C(C)C)CC3)n2Cc2ccccc21` [Example 238, {10-[(6-Chloro-3-methoxy-2′-methyl[1,1′-biphenyl]-4-yl)carbonyl]-10,11-dihydro-5H -pyrrolo[2,1-c][1,4]benzodiazepin-3-yl}(4-isopropyl-1-piperazinyl)methanone], the inhibition at 0.1 µM in series [1] was 27%. Regarding `COc1cccc(-c2cc(OC)c(C(=O)N3Cc4ccc(C(=O)N5CCN(C(C)C)CC5)n4Cc4ccccc43)cc2Cl)c1` [Example 239, {10-[(6-Chloro-3,3′-dimethoxy[1,1′-biphenyl]-4-yl)carbonyl]-10,11-dihydro-5H-pyrrolo[2,1-c][1,4]benzodiazepin-3-yl}(4-isopropyl-1-piperazinyl)methanone], the inhibition at 0.1 µM in series [1] is 16%. In the case of `Cc1cc(C(=O)N2Cc3ccc(C(=O)N4CCN(C(C)C)CC4)n3Cc3ccccc32)ccc1-c1ccccc1C(F)(F)F` [Example 240, (4-Isopropyl-1-piperazinyl)(10-{[2-methyl-2′-(trifluoromethyl)[1,1′-biphenyl]-4-yl]carbonyl}-10,11-dihydro-5H-pyrrolo[2,1-c][1,4]benzodiazepin-3-yl)methanone], in series [1], the inhibition at 0.1 µM worked out at 9%. Regarding `COc1ccccc1-c1ccc(C(=O)N2Cc3ccc(C(=O)N4CCN(C(C)C)CC4)n3Cc3ccccc32)cc1OC` [Example 241, {10-[(2,2′-Dimethoxy[1,1-biphenyl]4-yl)carbonyl]-10,11-dihydro-5H-pyrrolo[2,1-c][1,4]benzodiazepin-3-yl}(4-isopropyl-1-piperazinyl)methanone], the inhibition at 0.1 µM in series [1] is -17%. Regarding `COc1cccc(-c2ccc(C(=O)N3Cc4ccc(C(=O)N5CCN(C(C)C)CC5)n4Cc4ccccc43)cc2OC)c1` [Example 242, {10-[(2,3′-Dimethoxy[1,1′-biphenyl]-4-yl)carbonyl]-10,11-dihydro-5H-pyrrolo[2,1-c][1,4]benzodiazepin-3-yl}(4-isopropyl-1-piperazinyl)methanone], the inhibition at 0.1 µM in series [1] came out at 25%.

The record behind these values is patent US7109193B2, “Tricyclic diazepines tocolytic oxytocin receptor antagonists” (Wyeth, priority 2001, dated 2006).
